1 substance from article PMC6271500, “Bowman-Birk Protease Inhibitor from Vigna unguiculata Seeds Enhances the Action of Bradykinin-Related Peptides” (Molecules, 2014) can be followed below.

In test [1] the test system is BTCI. The test is described as follows: Fluorescence quenching of BTCI by Bk-related peptides. Type of test: binding, Vigna unguiculata. Conditions: for Binding constant Kb (association) of BTCI in complex with peptide / Stern-Volmer quenching constant KSV of BTCI in complex with peptide: BTCI 25 µM, peptide 25-500 µM; for Stern-Volmer quenching constant KSV of BTCI in complex with peptide: excitation 295 nm, emission at 355 nm. The method, then:
Fluorescence measurements were performed at pH 5.0, 7.4 and 9.0 and 25 °C using the Jasco FP-6500 spectrofluorimeter (Jasco Analytical Instruments) coupled to a Jasco ETC-273T Peltier system (Jasco Analytical Instruments) with water circulation. Both excitation and emission slit were fitted to 5.0 nm and the excitation and emission wavelength were 295 nm and 300–400 nm, respectively. The concentration of BTCI was 25 µM, whereas the concentration of Bk and Bk-related peptides varied from 25 to 500 µM. The BTCI in complex with peptides were investigated by fluorescence quenching as a function of pH. The averages of five fluorescence spectra were recorded and processed by the program Spectra Manager (Jasco Analytical Instruments). The fluorescence emissions were fitted according to the classic Stern-Volmer equation (Equation (2)): F0/F = 1 + KSV[Q] (2) where F and F0 are the fluorescence intensities in the presence and absence of quencher, respectively, KSV is Stern-Volmer constant and Q is the concentration of the quencher.
The binding constants for BTCI, Bk and Bk-related peptides interaction were calculated according to Equation (3): Log[(F0 − F)/F] = LogKb + nLog[Q] (3) where Kb is the binding constant and n is the number of binding sites per BTCI [47].

In test [2] the test system is bovine chymotrypsin. The test is described as follows: Chymotrypsin inhibition by BTCI (GPNA substrate). The class given is biochemical. The settings on record: BTCI 40 µM, peptide 0–10 µM. The method, then: The inhibitory activities of BTCI against bovine pancreatic trypsin (25 kDa; A280^1% = 15.90) and chymotrypsin (24 kDa; A280^1% = 20.40) (Sigma Co.) were first determined in the absence of Bk and Bk-related peptides. Briefly, the residual enzymatic activities were assayed by mixing 40 µL of chymotrypsin (28.60 µM) or trypsin (2.57 µM) with BTCI at concentration range of 0–10 µM for trypsin and 0–40 µM for chymotrypsin at 25 °C for 15 minutes. After that, 200 µL of 0.40·mg·mL^−1 N-glutaryl-L-phenylalanine-p-nitroanilide (GPNA) in 50 mM Tris-HCl, 20 mM CaCl2, pH 7.6 for chymotrypsin assay or 0.43 mg·mL^−1 Nα-benzoyl-DL-arginine 4-nitroanilide hydrochloride (BAPNA) in 50 mM Tris-HCl, 20 mM CaCl2, pH 8.2 for trypsin assay were added. Substrate hydrolysis was done for 15 minutes and stopped by adding 30% (v/v) acetic acid. The enzymatic assays were also carried out in the presence of Bk at similar concentration of BTCI. The relative enzymatic activities were evaluated by the liberation of p-nitroanilide, which was monitored at 410 nm using a SpectraMax Plus 384 Microplate Reader spectrophotometer (Molecular Devices, Sunnyvale, CA, USA). The obtained values are an average of three independent measurements. Inhibition curves were obtained by plotting relative activities of the proteases vs. BTCI concentration in the absence or presence of Bk and Bk-related peptides. […]

As for [Val]^1[Thr]^6-bradykinyl-Gln-Ser [Bk2], in test [1] (pH 5.0, 25 °C), the “binding sites (n) per BTCI molecule” value stood at 1.04, the “Binding constant Kb (association) of BTCI in complex with peptide” value (“Binding constant Kb (association)” for short) came to 590 M⁻¹ and the “Stern-Volmer quenching constant KSV of BTCI in complex with peptide” value (from here on “Stern-Volmer quenching constant KSV”) was determined as 425 M⁻¹. For the same substance, in test [1] (pH 7.4, 25 °C), the “binding sites (n) per BTCI molecule” value came to 0.89, the “Binding constant Kb (association)” value was determined as 220 M⁻¹ and the “Stern-Volmer quenching constant KSV” value turned out to be 509 M⁻¹. Moreover, in test [1] (pH 9.0, 25 °C), the “binding sites (n) per BTCI molecule” value is reported as 1.23, the “Binding constant Kb (association)” value was 1810 M⁻¹ and the “Stern-Volmer quenching constant KSV” value worked out at 384 M⁻¹. In addition, in test [2], the “effect of peptide on BTCI inhibition of chymotrypsin” value is on record as “did not interfer in their activities”.
